Measured values from article PMC9668928, “Zandelisib (ME-401) in Japanese patients with relapsed or refractory indolent non-Hodgkin’s lymphoma: an open-label, multicenter, dose-escalation phase 1 study” (International Journal of Hematology, 2022).
“Also recorded” adds a separate entry of the source.

Tested on: Japanese patients with R/R iNHL
Test: Phase 1 dose-escalation study: safety and tolerability (TEAEs, DLTs)
Type: in vivo
Text: Japanese patients aged ≥ 20 years with R/R iNHL histologically confirmed as FL, nodal MZL, extra-nodal MZL of mucosa-associated lymphoid tissue, small lymphocytic lymphoma, lymphoplasmacytic lymphoma, Waldenström’s macroglobulinemia, or equivalent, according to World Health Organization classification, were eligible for this study. Other key eligibility criteria included being PI3K inhibitor therapy-naïve and an Eastern Cooperative Oncology Group performance status of 0 or 1. Further details of inclusion and exclusion criteria are provided in Supplementary Table 1.
This was a multicenter, open-label, dose-escalation, phase 1 study in Japan. All patients received oral zandelisib once daily at the same time each day, at least 1 h before or 2 h after a meal (CS: continuous schedule). Each treatment cycle was 28 days. Definitions of the DLTs described in this study can be found in Supplementary Table 2. The observation period for DLTs was from day 1 of Cycle 1 to day 1 of Cycle 2. Zandelisib was administered until disease progression or unacceptable toxicity. In the event of an AE, patients could be switched to IDT. In the case of disease progression while receiving IDT, patients could be switched back to CS per the investigator’s discretion.
A starting dose of 45 mg was set for investigating patient safety. This study adopted a standard 3 + 3 design. […] If DLTs occurred in 2 or more patients, the study was planned to be suspended pending a safety evaluation. If a DLT occurred in 1 patient, 3 further patients were added to cohort 1. If DLTs occurred in 0/3 or 1/6 patients in cohort 1, dosing in cohort 2 commenced (n = 6; 60 mg/day). If the incidence of DLTs in cohort 2 was ≤ 1/6, the maximum tolerated dose was not determined, and the dose in cohort 2 was to be selected as the recommended Japanese phase 2 dose.
The primary endpoint was the safety [number of patients with treatment-emergent adverse events (TEAEs), based on Common Terminology Criteria for Adverse Events version 5.0] and tolerability (including laboratory values, vital signs, and electrocardiogram performance) of zandelisib in Japanese patients. Hepatobiliary disorder, aspartate/alanine (AST/ALT) increased, diarrhea/colitis, organizing pneumonia, stomatitis, or rash were defined as irAEs in this manuscript. Secondary endpoints included PK (plasma concentrations and PK parameters) and the efficacy of zandelisib. […] The PK parameters for Cycle 1 day 1 and Cycle 2 day 1 were calculated for each patient by non-compartmental analysis. PK parameters included maximum plasma drug concentration (Cmax), area under the plasma concentration–time curve (AUC) from time zero to the last measurable point (AUC0–t), the AUC from time zero to infinity (AUC0-inf), and terminal half-life (t1/2).

CN1CCC(c2ccccc2CC(C)(C)Nc2nc(N3CCOCC3)nc(-n3c(C(F)F)nc4ccccc43)n2)CC1 [zandelisib]
TEAE Infections and infestations (SOC), All grades (60 mg, n = 6): 4 (66.7) n (%)
TEAE Infections and infestations (SOC), Grade ≥ 3 (60 mg, n = 6): 0 n (%)
TEAE Infusion site extravasation, All grades (60 mg, n = 6): 0 n (%)
TEAE Infusion site extravasation, Grade ≥ 3 (60 mg, n = 6): 0 n (%)
TEAE Insomnia, All grades (60 mg, n = 6): 0 n (%)
TEAE Insomnia, Grade ≥ 3 (60 mg, n = 6): 0 n (%)
TEAE Investigations (SOC), All grades (60 mg, n = 6): 6 (100.0) n (%)
TEAE Investigations (SOC), Grade ≥ 3 (60 mg, n = 6): 4 (66.7) n (%)
TEAE Joint effusion, All grades (60 mg, n = 6): 0 n (%)
TEAE Joint effusion, Grade ≥ 3 (60 mg, n = 6): 0 n (%)
TEAE Lymphocyte count decreased, All grades (60 mg, n = 6): 1 (16.7) n (%)
TEAE Lymphocyte count decreased, Grade ≥ 3 (60 mg, n = 6): 0 n (%)
TEAE Metabolism and nutrition disorders (SOC), All grades (60 mg, n = 6): 0 n (%)
TEAE Metabolism and nutrition disorders (SOC), Grade ≥ 3 (60 mg, n = 6): 0 n (%)
TEAE Muscle spasms, All grades (60 mg, n = 6): 0 n (%)
TEAE Muscle spasms, Grade ≥ 3 (60 mg, n = 6): 0 n (%)
TEAE Musculoskeletal and connective tissue disorders (SOC), All grades (60 mg, n = 6): 2 (33.3) n (%)
TEAE Musculoskeletal and connective tissue disorders (SOC), Grade ≥ 3 (60 mg, n = 6): 0 n (%)
TEAE Nasopharyngitis, All grades (60 mg, n = 6): 3 (50.0) n (%)
TEAE Nasopharyngitis, Grade ≥ 3 (60 mg, n = 6): 0 n (%)
TEAE Nausea, All grades (60 mg, n = 6): 2 (33.3) n (%)
TEAE Nausea, Grade ≥ 3 (60 mg, n = 6): 0 n (%)
TEAE Nervous system disorders (SOC), All grades (60 mg, n = 6): 0 n (%)
TEAE Nervous system disorders (SOC), Grade ≥ 3 (60 mg, n = 6): 0 n (%)
TEAE Neutrophil count decreased, All grades (60 mg, n = 6): 6 (100.0) n (%)
TEAE Neutrophil count decreased, Grade ≥ 3 (60 mg, n = 6): 4 (66.7) n (%)
TEAE Oral herpes, All grades (60 mg, n = 6): 0 n (%)
TEAE Oral herpes, Grade ≥ 3 (60 mg, n = 6): 0 n (%)
TEAE Organizing pneumonia, All grades (60 mg, n = 6): 0 n (%)
TEAE Organizing pneumonia, Grade ≥ 3 (60 mg, n = 6): 0 n (%)
TEAE Oropharyngeal pain, All grades (60 mg, n = 6): 2 (33.3) n (%)
TEAE Oropharyngeal pain, Grade ≥ 3 (60 mg, n = 6): 0 n (%)
TEAE Pancreatitis, All grades (60 mg, n = 6): 0 n (%)
TEAE Pancreatitis, Grade ≥ 3 (60 mg, n = 6): 0 n (%)
TEAE Pharyngeal paresthesia, All grades (60 mg, n = 6): 1 (16.7) n (%)
TEAE Pharyngeal paresthesia, Grade ≥ 3 (60 mg, n = 6): 0 n (%)
TEAE Pruritus, All grades (60 mg, n = 6): 1 (16.7) n (%)
TEAE Pruritus, Grade ≥ 3 (60 mg, n = 6): 0 n (%)
TEAE Psychiatric disorders (SOC), All grades (60 mg, n = 6): 0 n (%)
TEAE Psychiatric disorders (SOC), Grade ≥ 3 (60 mg, n = 6): 0 n (%)
TEAE Rash maculopapular, All grades (60 mg, n = 6): 4 (66.7) n (%)
TEAE Rash maculopapular, Grade ≥ 3 (60 mg, n = 6): 1 (16.7) n (%)
TEAE Rash, All grades (60 mg, n = 6): 3 (50.0) n (%)
TEAE Rash, Grade ≥ 3 (60 mg, n = 6): 0 n (%)
TEAE Renal and urinary disorders (SOC), All grades (60 mg, n = 6): 0 n (%)
TEAE Renal and urinary disorders (SOC), Grade ≥ 3 (60 mg, n = 6): 0 n (%)
TEAE Renal impairment, All grades (60 mg, n = 6): 0 n (%)
TEAE Renal impairment, Grade ≥ 3 (60 mg, n = 6): 0 n (%)
TEAE Respiratory, thoracic, and mediastinal disorders (SOC), All grades (60 mg, n = 6): 3 (50.0) n (%)
TEAE Respiratory, thoracic, and mediastinal disorders (SOC), Grade ≥ 3 (60 mg, n = 6): 0 n (%)
TEAE Skin and subcutaneous tissue disorders (SOC), All grades (60 mg, n = 6): 6 (100.0) n (%)
TEAE Skin and subcutaneous tissue disorders (SOC), Grade ≥ 3 (60 mg, n = 6): 1 (16.7) n (%)
TEAE Stomatitis, All grades (60 mg, n = 6): 1 (16.7) n (%)
TEAE Stomatitis, Grade ≥ 3 (60 mg, n = 6): 0 n (%)
TEAE Subcutaneous abscess, All grades (60 mg, n = 6): 1 (16.7) n (%)
TEAE Subcutaneous abscess, Grade ≥ 3 (60 mg, n = 6): 0 n (%)
TEAE Tinnitus, All grades (60 mg, n = 6): 0 n (%)
TEAE Tinnitus, Grade ≥ 3 (60 mg, n = 6): 0 n (%)
TEAE Urticaria, All grades (60 mg, n = 6): 0 n (%)
TEAE Urticaria, Grade ≥ 3 (60 mg, n = 6): 0 n (%)
TEAE Vomiting, All grades (60 mg, n = 6): 2 (33.3) n (%)
TEAE Vomiting, Grade ≥ 3 (60 mg, n = 6): 0 n (%)
TEAE WBC count decreased, All grades (60 mg, n = 6): 2 (33.3) n (%)
TEAE WBC count decreased, Grade ≥ 3 (60 mg, n = 6): 0 n (%)
maximum tolerated dose (MTD) (45 and 60 mg/day): not reached
dose-limiting toxicities (DLTs) (45 and 60 mg/day, N = 9): No dose-limiting toxicities were observed; also recorded: No DLTs were reported; also recorded: no DLTs or fatal events were observed
recommended phase 2 dose (RP2D) (Japanese patients): 60 mg/day
Grade 3 irAEs (N = 9): 7 patients
Grade ≤ 3 irAEs (N = 9): All patients experienced Grade ≤ 3 irAEs
Grade ≥ 3 diarrhea (N = 9): 33.3%
Grade ≥ 3 neutrophil count decreased (N = 9): 55.6%
discontinued due to SAEs (N = 9): 3 patients
dosing interrupted due to irAEs (N = 9): 7 patients
dosing interrupted due to neutrophil count decreased (N = 9): 1 patients
incidence of TEAEs ≥ Grade 3 (N = 9): 77.8%
number of serious AEs (SAEs) (N = 9): 6
zandelisib discontinuation due to immune-related toxicities (N = 9): 4 patients
patients with serious AEs (SAEs) (N = 9, all Grade 3, treatment related): 44.4%
incidence of TEAEs in all patients (N = 9, all grades): 100%
TEAE ALT increased, All grades (Total, N = 9): 3 (33.3) n (%)
TEAE ALT increased, Grade ≥ 3 (Total, N = 9): 0 n (%)
TEAE AST increased, All grades (Total, N = 9): 5 (55.6) n (%)
TEAE AST increased, Grade ≥ 3 (Total, N = 9): 0 n (%)
TEAE Abdominal discomfort, All grades (Total, N = 9): 1 (11.1) n (%)
TEAE Abdominal discomfort, Grade ≥ 3 (Total, N = 9): 0 n (%)
TEAE Abdominal pain upper, All grades (Total, N = 9): 1 (11.1) n (%)
TEAE Abdominal pain upper, Grade ≥ 3 (Total, N = 9): 0 n (%)
TEAE Amylase increased, All grades (Total, N = 9): 1 (11.1) n (%)
TEAE Amylase increased, Grade ≥ 3 (Total, N = 9): 0 n (%)
TEAE Anemia, All grades (Total, N = 9): 1 (11.1) n (%)
TEAE Anemia, Grade ≥ 3 (Total, N = 9): 0 n (%)
TEAE Arthralgia, All grades (Total, N = 9): 2 (22.2) n (%)
TEAE Arthralgia, Grade ≥ 3 (Total, N = 9): 0 n (%)
TEAE Back pain, All grades (Total, N = 9): 1 (11.1) n (%)
TEAE Back pain, Grade ≥ 3 (Total, N = 9): 0 n (%)
TEAE Blepharitis, All grades (Total, N = 9): 1 (11.1) n (%)
TEAE Blepharitis, Grade ≥ 3 (Total, N = 9): 0 n (%)
TEAE Blood and lymphatic system disorders (SOC), All grades (Total, N = 9): 1 (11.1) n (%)
TEAE Blood and lymphatic system disorders (SOC), Grade ≥ 3 (Total, N = 9): 0 n (%)
TEAE Blood creatinine increased, All grades (Total, N = 9): 1 (11.1) n (%)
TEAE Blood creatinine increased, Grade ≥ 3 (Total, N = 9): 0 n (%)
TEAE Bradycardia, All grades (Total, N = 9): 1 (11.1) n (%)
TEAE Bradycardia, Grade ≥ 3 (Total, N = 9): 0 n (%)
TEAE CMV test positive, All grades (Total, N = 9): 3 (33.3) n (%)
TEAE CMV test positive, Grade ≥ 3 (Total, N = 9): 0 n (%)
TEAE Cardiac disorders (SOC), All grades (Total, N = 9): 1 (11.1) n (%)
TEAE Cardiac disorders (SOC), Grade ≥ 3 (Total, N = 9): 0 n (%)
TEAE Conjunctivitis, All grades (Total, N = 9): 2 (22.2) n (%)
TEAE Conjunctivitis, Grade ≥ 3 (Total, N = 9): 0 n (%)
TEAE Constipation, All grades (Total, N = 9): 4 (44.4) n (%)
TEAE Constipation, Grade ≥ 3 (Total, N = 9): 0 n (%)
TEAE Cough, All grades (Total, N = 9): 1 (11.1) n (%)
TEAE Cough, Grade ≥ 3 (Total, N = 9): 0 n (%)
TEAE Cytomegalovirus infection, All grades (Total, N = 9): 1 (11.1) n (%)
TEAE Cytomegalovirus infection, Grade ≥ 3 (Total, N = 9): 0 n (%)
TEAE Cytomegalovirus viremia, All grades (Total, N = 9): 1 (11.1) n (%)
